Consider 24 compounds from US10815197B2, “N-sulfonyl benzamides as voltage-gated sodium channel inhibitors” (SHANGHAI HAIYAN PHARMACEUTICAL TECHNOLOGY CO., LTD., priority 2016, dated 2020).

Where two headings read alike, the source gives them in different places.

The assay has as its target T1, hNav1.7 (Homo sapiens, UniProt Q15858).
T1 construct: host or cells: CHO
Kind of assay: Manual patch clamp experiment hNav1.7 (CHO-hNav1.7 stable cell line). It is filed as cell-based. The note with it: for inhibitory activity against Nav1.7 (in words): comparison from Table 1; for inhibition at 0.1 µM: read-out: Inhibition of Nav1.7 100 nM(%); for inhibition at 1 µM: read-out: Inhibition of Nav1.7 1000 nM(%). An excerpt:
Assay 1: Manual Patch Clamp Experiment of Sodium Ion (hNav1.7, hNav1.5 and hNaV1.8) and Calcium Ion (hCav3.2) Channels
hNav1.7, hNav1.5 Manual Patch Clamp Experiment:
Patch voltage clamp electrophysiology allows for the direct measurement and quantification of current block of voltage-gated sodium channels (NaV's), and allows the determination of the time and voltage-dependence of block which has been interpreted as differential binding to the resting, open and inactivated states of the sodium channel to reflect the compound's inhibitory or activating effects (Hille, B., Journal of General Physiology (1977), 69: 497-515).
Representative compounds of the present invention were subject to a manual patch clamp experiment and the purpose of this study was to test the effect of compounds on this ion channel current on a stable cell line transfected with a specific ion channel using a manual patch clamp method. The used stable cell lines CHO-hNav1.7 and HEK-hNav1.5 were from Genionics and WuXi Apptec (Shanghai) respectively.
Manual patch clamp experimental program is as follows:
(1) Preparation of solutions and compounds: The whole cell patch clamp technique was used to record hNav1.7 and hNav1.5 currents. In the experiment, the composition of extracellular fluid (mM): HEPES: 5, NaCl: 40, KCl: CaCl2: 1, MgCl2: 1, CdCl2: 0.1, TEA-Cl: 20. The pH was adjusted to 7.3 with NaOH and the osmotic pressure was adjusted to 310-320 mOsm with sucrose, filtered and stored at 4° C. The composition of the intracellular fluid (mM): HEPES: 10, NaCl: 10, CsOH: 5, CsF: 140, EGTA: 1. The pH was adjusted to 7.3 with CsOH and the osmotic pressure was adjusted to 280-290 mOsm with sucrose, filtered and stored at −20° C.
The positive control and the test compound were firstly dissolved in 100% DMSO (Sigma-Aldrich, D2650), configured as stock solution at a concentration (100 nM, 1000 nM).) The above stock solution was serially diluted with DMSO prior to the experiment, the solution was further diluted with extracellular solution to obtain the test solution of the desired concentration.
(2) Manual Patch Clamp Experiment: The cell suspension was added to a 35 mm petri dish and placed on an inverted microscope stage. The cells were perfused with an extracellular fluid and the flow rate was 1-2 mL/min after cell adherence. The glass microelectrode was prepared in two steps by a microelectrode puller with an inlet water resistance of 2-5 MΩ. A/D-D/A digital-analog conversion was performed by Digidata 1440 (Molecular Devices) and pCLAMP software (version 10.2, Molecular Devices) for stimulation and signal acquisition; the signal was amplified by patch clamp amplifier (Multiclamp 700B, Molecular Devices), and filtering is 4 KHz.
Two different voltage stimulation procedures were used in the hNav1.7 and hNav1.5 manual patch clamp experiments.
One is the inactivation stimulation program, the clamp potential is set at V1/2 of the corresponding channel, i.e., about 50% of the channels are inactivated, then the voltage is applied to −120 mV for 50 ms, then depolarized to −10 mV for 20 ms leading to sodium current, and finally returned to the clamp potential. This stimulation program can also be called channel state-dependent voltage stimulation program.
The other is the non-inactivation stimulation program, the clamp potential is maintained at −120 mV, voltage stimulation is given to −10 mV for 20 ms leading to sodium current, and finally returned to the clamp potential. That is, all channels have not experienced inactivation status, but activate directly from the resting state under the conditions of the stimulation program.
The time intervals of these two voltage stimulation programs were 10 s. The inhibitory effect of the compound was calculated by the change of the current before and after dosing, the IC50 value was fitted by the Hill equation.
(In patch-clamp work, channel activity is measured electrically.)

T1 sequence (Q15858 whole entry): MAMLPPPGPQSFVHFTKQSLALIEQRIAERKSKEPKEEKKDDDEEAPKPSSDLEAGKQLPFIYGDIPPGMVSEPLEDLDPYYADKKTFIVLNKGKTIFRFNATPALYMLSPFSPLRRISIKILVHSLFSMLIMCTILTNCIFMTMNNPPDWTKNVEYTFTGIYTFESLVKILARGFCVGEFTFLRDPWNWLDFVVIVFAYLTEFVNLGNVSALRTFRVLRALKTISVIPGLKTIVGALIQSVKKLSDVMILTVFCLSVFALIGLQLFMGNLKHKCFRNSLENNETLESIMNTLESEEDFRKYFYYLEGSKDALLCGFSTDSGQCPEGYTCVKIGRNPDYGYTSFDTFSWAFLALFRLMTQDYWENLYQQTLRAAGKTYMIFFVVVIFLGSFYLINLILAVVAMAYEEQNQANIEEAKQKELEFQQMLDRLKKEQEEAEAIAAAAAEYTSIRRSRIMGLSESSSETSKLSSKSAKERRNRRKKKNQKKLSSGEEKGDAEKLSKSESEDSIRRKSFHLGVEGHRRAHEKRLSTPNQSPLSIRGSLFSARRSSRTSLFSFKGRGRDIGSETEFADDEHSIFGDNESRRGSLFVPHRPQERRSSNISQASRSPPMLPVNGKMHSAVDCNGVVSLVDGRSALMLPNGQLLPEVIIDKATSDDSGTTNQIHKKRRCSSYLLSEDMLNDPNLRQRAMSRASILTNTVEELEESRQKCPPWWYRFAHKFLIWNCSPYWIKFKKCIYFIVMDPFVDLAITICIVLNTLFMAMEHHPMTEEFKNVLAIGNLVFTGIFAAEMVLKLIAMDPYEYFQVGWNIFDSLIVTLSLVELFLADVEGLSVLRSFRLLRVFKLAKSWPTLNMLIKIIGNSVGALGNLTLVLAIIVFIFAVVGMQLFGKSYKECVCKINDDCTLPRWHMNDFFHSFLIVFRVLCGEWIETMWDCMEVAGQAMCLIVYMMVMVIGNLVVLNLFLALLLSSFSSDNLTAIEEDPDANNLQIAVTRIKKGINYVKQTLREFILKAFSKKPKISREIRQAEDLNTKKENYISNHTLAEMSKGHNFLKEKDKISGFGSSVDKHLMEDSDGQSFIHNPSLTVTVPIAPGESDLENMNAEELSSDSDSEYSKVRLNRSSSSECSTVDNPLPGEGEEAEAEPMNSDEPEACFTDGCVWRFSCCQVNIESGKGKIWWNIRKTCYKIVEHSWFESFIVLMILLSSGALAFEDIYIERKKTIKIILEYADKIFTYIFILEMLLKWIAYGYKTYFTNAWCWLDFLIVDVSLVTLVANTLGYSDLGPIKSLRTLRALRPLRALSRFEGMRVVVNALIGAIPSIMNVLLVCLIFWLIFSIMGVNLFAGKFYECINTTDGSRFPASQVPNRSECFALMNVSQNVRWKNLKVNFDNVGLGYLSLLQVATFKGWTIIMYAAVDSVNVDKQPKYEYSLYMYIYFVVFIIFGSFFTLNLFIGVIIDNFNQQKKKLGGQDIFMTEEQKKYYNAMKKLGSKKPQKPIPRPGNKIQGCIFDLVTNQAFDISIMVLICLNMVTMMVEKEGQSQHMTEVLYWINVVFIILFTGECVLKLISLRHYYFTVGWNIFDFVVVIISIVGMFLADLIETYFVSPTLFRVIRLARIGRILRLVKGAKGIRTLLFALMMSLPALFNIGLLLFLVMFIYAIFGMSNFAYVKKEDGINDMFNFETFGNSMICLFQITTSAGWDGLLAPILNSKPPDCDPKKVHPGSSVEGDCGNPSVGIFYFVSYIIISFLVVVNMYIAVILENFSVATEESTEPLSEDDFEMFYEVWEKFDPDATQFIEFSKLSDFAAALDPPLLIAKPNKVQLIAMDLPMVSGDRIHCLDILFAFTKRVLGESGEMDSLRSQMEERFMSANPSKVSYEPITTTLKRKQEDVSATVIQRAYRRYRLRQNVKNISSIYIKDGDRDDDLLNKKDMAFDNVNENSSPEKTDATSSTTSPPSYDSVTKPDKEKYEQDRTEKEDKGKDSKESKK

In general, inhibition refers to the change of the read-out against control, counted positive when it falls. Regarding `O=C(NS(=O)(=O)C1CC1)c1cc(C2CC2)c(CN2CCN(Cc3cc(Cl)cc(Cl)c3)CC2)cc1F` [Compound C1, reference compound], the “inhibitory activity against Nav1.7 (in words)” value (from here on “inhibitory activity”) is reported as “significantly reduced”, the inhibition at 0.1 µM came out at 52% and the inhibition at 1 µM is 64%.

Consider `O=C(NS(=O)(=O)C1CC1)c1cc(C2CC2)c(OC[C@H]2CCCN2c2ccc(C(F)(F)F)cn2)cc1F` [Compound Z-142, (R)-5-cyclopropyl-N-(cyclopropylsulfonyl)-2-fluoro-4-((1-(5-(trifluoromethyl)pyridin-2-yl)pyrrolidin-2-yl)methoxy)benzamide], for which, for the setting “compound at 100 nM”, the inhibition at 0.1 µM worked out at 92.2%. Further, the inhibition at 1 µM (compound at 1000 nM) came to 97.8%.

Consider `Cc1c(F)ccc(N2CCN(Cc3cc(F)c(C(=O)NS(=O)(=O)C4CC4)cc3Cl)CC2)c1Cl` [Compound Z-184], for which the inhibition at 0.1 µM (compound at 100 nM) was found to be 70.3%. The inhibition at 1 µM (compound at 1000 nM) came to 98.5%.

As for `CCc1cc(C(=O)NS(=O)(=O)C2CC2)c(F)cc1CN1CCN(c2ccc(Cl)c(Cl)c2)CC1` [Compound Z-191], the inhibition at 0.1 µM (compound at 100 nM) worked out at 73.3%. The inhibition at 1 µM (compound at 1000 nM) was 95%.

Turning to “(cyclopropylsulfonyl)-4-((4-(3,4-dichlorophenyl) piperazin-1-yl)methyl)-2-fluorobenzamide [Compound Z-196]”, where the note is “compound at 100 nM”, the “Inhibition of Nav1.7 100 nM(%)” value turned out to be 85.03%. In addition, for the setting “compound at 1000 nM”, the “Inhibition of Nav1.7 1000 nM(%)” value was determined as 93.02%.

Consider `O=C(NS(=O)(=O)C1CC1)c1cc(Cl)c(CN2CCN(C(=O)c3ccc(Cl)cc3)CC2)cc1F` [Compound C5, reference compound], for which, where the note is “compound at 100 nM”, the inhibition at 0.1 µM worked out at 17.2%. Further, the inhibition at 1 µM (compound at 1000 nM) amounted to 36.8%.

For `CS(=O)(=O)NC(=O)c1cc(C2CC2)c(CN2CCN(Cc3cc(Cl)cc(Cl)c3)CC2)cc1F` [Compound C11, reference compound], the “inhibitory activity” value was “significantly reduced”. The inhibition at 0.1 µM (compound at 100 nM) was 23.1%. Further, the inhibition at 1 µM (compound at 1000 nM) was found to be 51.9%.

With `Cc1c(Cl)ccc(N2CCN(Cc3cc(F)c(C(=O)NS(=O)(=O)C4CC4)cc3Cl)CC2)c1F` [Compound Z-188], for the setting “compound at 100 nM”, the inhibition at 0.1 µM is 81.8%. Further, the inhibition at 1 µM (compound at 1000 nM) was found to be 98.1%.

As to `Cc1cc(N2CCN(Cc3cc(F)c(C(=O)NS(=O)(=O)C4CC4)cc3Cl)CC2)cc(C)c1Cl` [Compound Z-185], the inhibition at 0.1 µM (compound at 100 nM) amounted to 85.3%. Also, the inhibition at 1 µM (compound at 1000 nM) worked out at 94.9%.

With `O=C(NS(=O)(=O)C1CC1)c1cc(Cl)c(OC[C@H]2CCCN2Cc2ccc(Cl)cc2)cc1F` [Compound C7, (R)-5-chloro-4-((1-(4-chlorobenzyl)pyrrolidin-2-yl)methoxy)-N-(cyclopropylsulfonyl), reference compound], the inhibition at 0.1 µM is 31.1% and the inhibition at 1 µM worked out at 67.5%.

For the compound `Cc1c(F)c(F)cc(N2CCN(Cc3cc(F)c(C(=O)NS(=O)(=O)C4CC4)cc3Cl)CC2)c1F` [Compound Z-182], under “compound at 100 nM”, the inhibition at 0.1 µM is 77.2%. For the setting “compound at 1000 nM”, the inhibition at 1 µM was 97.6%.

Turning to `Cc1cc(C(=O)N2CCN(Cc3cc(F)c(C(=O)NS(=O)(=O)C4CC4)cc3Cl)CC2)ccc1Cl` [Compound C3, reference compound], the inhibition at 0.1 µM (compound at 100 nM) is 17.6%. Besides, the inhibition at 1 µM (compound at 1000 nM) is 52.3%.

On to `O=C(NS(=O)(=O)C1CC1)c1cc(Cl)c(OC[C@H]2CCCN2C(=O)c2ccc(Cl)cc2)cc1F` [Compound C9, (R)-5-chloro-4-((1-(4-chlorobenzoyl)pyrrolidin-2-yl)methoxy)-N-(cyclopropylsulfonyl), reference compound], for which, under “compound at 100 nM”, the inhibition at 0.1 µM turned out to be 5.49%. Moreover, the inhibition at 1 µM (compound at 1000 nM) amounted to 29.1%.

With `O=C(NS(=O)(=O)C1CC1)c1cc(Cl)c(OC[C@H]2CCCN2Cc2ccc(C(F)(F)F)cc2)cc1F` [Compound C8, (R)-5-chloro-N-(cyclopropylsulfonyl)-2-fluoro-4-((1-(4-(trifluoromethyl)benzyl)pyrrolidin-2-yl)methoxy), reference compound], under “compound at 100 nM”, the inhibition at 0.1 µM is 47%. Also, the inhibition at 1 µM (compound at 1000 nM) was 66.8%.

Turning to `O=C(NS(=O)(=O)C1CC1)c1cc(Cl)c(OC[C@H]2CCCN2c2ccc(C(F)(F)F)cn2)cc1F` [Compound Z-150, (R)-5-chloro-N-(cyclopropylsulfonyl)-2-fluoro-4-((1-(5-(trifluoromethyl)pyridin-2-yl)pyrrolidin-2-yl)methoxy)benzamide], the inhibition at 0.1 µM (compound at 100 nM) turned out to be 93.3%. In addition, the inhibition at 1 µM (compound at 1000 nM) amounted to 96.7%.

With `O=C(NS(=O)(=O)C1CC1)c1cc(Cl)c(CN2CCN(c3ccc(C(F)(F)F)cc3)CC2)cc1F` [Compound Z-174], the inhibition at 0.1 µM (compound at 100 nM) amounted to 78%. In addition, the inhibition at 1 µM (compound at 1000 nM) amounted to 95.1%.

As for `CCc1cc(C(=O)NS(=O)(=O)C2CC2)c(F)cc1CN1CCN(c2cc(Cl)cc(Cl)c2)CC1` [Compound Z-192], the inhibition at 0.1 µM (compound at 100 nM) stood at 77.7%. Moreover, under “compound at 1000 nM”, the inhibition at 1 µM was determined as 98.4%.

`Cc1cc(N2CCN(Cc3cc(F)c(C(=O)NS(=O)(=O)C4CC4)cc3Cl)CC2)cc(C)c1F` [Compound Z-180]: the inhibition at 0.1 µM (compound at 100 nM) was 70.4%. Under “compound at 1000 nM”, the inhibition at 1 µM came to 97.8%.

Consider `CCc1cc(C(=O)NS(=O)(=O)C2CC2)c(F)cc1CN1CCN(c2ccc(Cl)c(F)c2)CC1` [Compound Z-193], for which, under “compound at 100 nM”, the inhibition at 0.1 µM turned out to be 72.6%. The inhibition at 1 µM (compound at 1000 nM) is 95.7%.

Turning to `O=C(NS(=O)(=O)C1CC1)c1cc(C2CC2)c(CN2CCN(c3cc(Cl)cc(Cl)c3)CC2)cc1F` [Compound Z-197], the inhibition at 0.1 µM came out at 83.6% and the inhibition at 1 µM came to 100%.

Consider `O=C(NS(=O)(=O)C1CC1)c1cc(Cl)c(OC[C@H]2CCCN2C(=O)c2ccc(C(F)(F)F)cc2)cc1F` [Compound C10, (R)-5-chloro-N-(cyclopropylsulfonyl)-2-fluoro-4-((1-(4-(trifluoromethyl)benzoyl)pyrrolidin-2-yl)methoxy), reference compound], for which the inhibition at 0.1 µM (compound at 100 nM) was 7.83%. In addition, the inhibition at 1 µM (compound at 1000 nM) came to 24.7%.

With `O=C(NS(=O)(=O)C1CC1)c1cc(Cl)c(CN2CCN(Cc3ccc(Cl)cc3)CC2)cc1F` [Compound C6, reference compound], the inhibition at 0.1 µM (compound at 100 nM) worked out at 11.2%. Further, the inhibition at 1 µM (compound at 1000 nM) was found to be 57.2%.

Regarding `CS(=O)(=O)NC(=O)c1cc(C2CC2)c(CN2CCN(Cc3ccc(Cl)c(Cl)c3)CC2)cc1F` [Compound C2, reference compound], the “inhibitory activity” value is recorded as “significantly reduced”. The inhibition at 0.1 µM (compound at 100 nM) was 49.2%. For the setting “compound at 1000 nM”, the inhibition at 1 µM was 64.8%.

`Cc1cc(CN2CCN(Cc3cc(F)c(C(=O)NS(=O)(=O)C4CC4)cc3Cl)CC2)ccc1Cl` [Compound C4, 5-chloro-4-((4-(4-chloro-3-methylbenzyl)piperazin-1-yl)methyl)-N-(cyclopropylsulfonyl)-2-fluorobenzamide, reference compound]: the “inhibitory activity” value is on record as “significantly reduced”. Also, the inhibition at 0.1 µM (compound at 100 nM) is 18.6%. For the same compound, the inhibition at 1 µM (compound at 1000 nM) came to 58.9%.
